From ChEMBL document CHEMBL5465560, “Selectivity Literature for EUbOPEN Chemogenomic Library” (2024)
Values belong to the compound of their own block, whether it stands above or below them.

Tests used:
[1] = target: Serine/threonine-protein kinase 38-like (Homo sapiens) (UniProt Q9Y2H1); conditions: at 10 µM
[2] = target: Activin receptor type-1-like (Homo sapiens) (UniProt P37023); test: Selectivity interaction (Ambit KINOMEscan and KiNATiv profiling in Jurkat cells) EUB0000090b ACVRL1; assay type: cell-based; conditions: at 1 µM
[3] = target: Receptor-interacting serine/threonine-protein kinase 2 (Homo sapiens, UniProt O43353); test: Selectivity interaction (KinomeScan (DiscoverX)) EUB0000655a RIPK2; conditions: at 10 µM
[4] = target: Serine/threonine-protein kinase MARK1 (Homo sapiens) (UniProt Q9P0L2); test: Selectivity interaction (KinomeScan (DiscoverX)) EUB0000618a MARK1; conditions: at 10 µM
[5] = target: Serine/threonine-protein kinase PLK1 (Homo sapiens, UniProt P53350); test: Selectivity interaction (KinomeScan (DiscoverX)) EUB0000618a PLK1; conditions: at 10 µM
[6] = target: Insulin-like growth factor 1 receptor (Homo sapiens, UniProt P08069); test: Selectivity interaction (KinomeScan (DiscoverX)) EUB0000618a IGF1R; conditions: at 10 µM
[7] = target: T1, Homeodomain-interacting protein kinase 4 (Homo sapiens) (UniProt Q8NE63); test: Selectivity interaction (KinomeScan (DiscoverX)) EUB0000607a HIPK4; conditions: at 10 µM
T1 sequence (whole entry): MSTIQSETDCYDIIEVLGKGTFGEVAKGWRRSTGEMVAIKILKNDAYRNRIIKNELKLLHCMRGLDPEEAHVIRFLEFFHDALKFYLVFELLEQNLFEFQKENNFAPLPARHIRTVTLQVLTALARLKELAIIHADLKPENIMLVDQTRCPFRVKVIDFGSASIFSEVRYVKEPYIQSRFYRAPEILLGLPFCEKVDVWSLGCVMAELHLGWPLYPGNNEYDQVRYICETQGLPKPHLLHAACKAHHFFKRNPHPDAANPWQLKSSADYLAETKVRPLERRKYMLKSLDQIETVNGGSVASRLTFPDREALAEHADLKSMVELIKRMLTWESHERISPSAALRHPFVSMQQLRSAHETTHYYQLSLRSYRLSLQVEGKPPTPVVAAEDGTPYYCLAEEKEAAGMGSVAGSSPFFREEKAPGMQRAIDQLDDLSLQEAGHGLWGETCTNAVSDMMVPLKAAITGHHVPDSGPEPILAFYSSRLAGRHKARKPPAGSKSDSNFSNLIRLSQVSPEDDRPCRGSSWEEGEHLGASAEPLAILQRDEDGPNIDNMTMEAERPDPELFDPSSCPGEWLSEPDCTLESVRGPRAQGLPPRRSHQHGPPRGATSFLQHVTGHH

[8] = target: Serine/threonine-protein kinase 32B (Homo sapiens) (UniProt Q9NY57); test: Selectivity interaction (KinomeScan (DiscoverX)) EUB0001619a STK32B; conditions: at 1 µM
[9] = target: STE20-like serine/threonine-protein kinase (Homo sapiens, UniProt Q9H2G2); test: Selectivity interaction (KinomeScan (DiscoverX)) EUB0001619a SLK; conditions: at 1 µM
[10] = target: T2, Cyclin-dependent kinase-like 2 (Homo sapiens) (UniProt Q92772); test: Selectivity interaction (KinomeScan (DiscoverX)) EUB0000595a CDKL2; conditions: at 10 µM
T2 sequence (whole entry): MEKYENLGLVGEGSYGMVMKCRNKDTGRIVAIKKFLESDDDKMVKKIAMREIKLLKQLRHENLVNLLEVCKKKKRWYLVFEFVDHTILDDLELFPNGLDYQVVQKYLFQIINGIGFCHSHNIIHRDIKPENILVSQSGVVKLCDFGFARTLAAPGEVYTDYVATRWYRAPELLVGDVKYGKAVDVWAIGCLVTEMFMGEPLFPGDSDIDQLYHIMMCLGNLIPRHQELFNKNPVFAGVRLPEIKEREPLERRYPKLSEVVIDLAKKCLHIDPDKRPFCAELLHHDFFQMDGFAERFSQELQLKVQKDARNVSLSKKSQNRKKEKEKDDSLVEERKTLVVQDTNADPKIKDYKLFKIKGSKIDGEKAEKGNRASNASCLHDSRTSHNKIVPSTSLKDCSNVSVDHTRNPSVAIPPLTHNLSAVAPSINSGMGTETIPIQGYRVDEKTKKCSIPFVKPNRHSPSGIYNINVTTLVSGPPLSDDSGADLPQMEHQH

[11] = target: DNA (cytosine-5)-methyltransferase 3A (Homo sapiens) (UniProt Q9Y6K1); test: Selectivity interaction (PWWP, WD40, and Tudor domain panel (DSLS measurements, literature)) EUB0000270b DNMT3A
[12] = target: Vascular endothelial growth factor receptor 2 (Homo sapiens, UniProt P35968); test: Selectivity interaction (Kinase panel (33PanQinase(R) Activity Assay)) EUB0000877a KDR
[13] = target: T3, Muscle, skeletal receptor tyrosine-protein kinase (Homo sapiens) (UniProt O15146); test: Selectivity interaction (KinomeScan (DiscoverX)) EUB0000092b MUSK; conditions: at 10 µM
T3 sequence (whole entry): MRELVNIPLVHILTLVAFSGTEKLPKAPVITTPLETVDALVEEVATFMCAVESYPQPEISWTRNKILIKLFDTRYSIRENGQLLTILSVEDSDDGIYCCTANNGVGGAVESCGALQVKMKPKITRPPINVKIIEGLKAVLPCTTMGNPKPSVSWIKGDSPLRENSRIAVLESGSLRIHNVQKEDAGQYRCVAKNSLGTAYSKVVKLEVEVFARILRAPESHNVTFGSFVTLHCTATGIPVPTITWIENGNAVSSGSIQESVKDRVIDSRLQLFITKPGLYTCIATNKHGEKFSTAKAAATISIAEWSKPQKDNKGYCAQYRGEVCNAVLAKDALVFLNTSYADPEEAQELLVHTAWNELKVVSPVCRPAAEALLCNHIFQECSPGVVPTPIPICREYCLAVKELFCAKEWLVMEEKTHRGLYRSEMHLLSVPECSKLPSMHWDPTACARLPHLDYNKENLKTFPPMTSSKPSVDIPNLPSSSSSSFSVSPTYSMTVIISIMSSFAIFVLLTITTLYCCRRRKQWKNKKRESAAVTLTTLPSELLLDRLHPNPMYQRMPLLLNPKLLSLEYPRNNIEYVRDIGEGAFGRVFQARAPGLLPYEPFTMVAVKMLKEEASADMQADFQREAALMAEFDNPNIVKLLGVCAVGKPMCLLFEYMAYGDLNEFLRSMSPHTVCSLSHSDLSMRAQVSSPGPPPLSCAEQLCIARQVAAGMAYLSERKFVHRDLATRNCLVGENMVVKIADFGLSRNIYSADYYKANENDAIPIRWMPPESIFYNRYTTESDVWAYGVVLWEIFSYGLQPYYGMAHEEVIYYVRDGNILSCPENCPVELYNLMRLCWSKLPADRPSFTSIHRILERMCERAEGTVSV

[14] = target: SRSF protein kinase 1 (Homo sapiens, UniProt Q96SB4); test: Selectivity interaction (KinomeScan (DiscoverX)) EUB0000092b SRPK1; conditions: at 10 µM
[15] = target: Tyrosine-protein kinase BTK (Homo sapiens, UniProt Q06187); test: Selectivity interaction (Kinase panel (Z-LYTE Assay)) EUB0001632a BTK; conditions: at 10 µM

Sequence of Serine/threonine-protein kinase MARK1 (Homo sapiens) (Q9P0L2 whole entry, looked up): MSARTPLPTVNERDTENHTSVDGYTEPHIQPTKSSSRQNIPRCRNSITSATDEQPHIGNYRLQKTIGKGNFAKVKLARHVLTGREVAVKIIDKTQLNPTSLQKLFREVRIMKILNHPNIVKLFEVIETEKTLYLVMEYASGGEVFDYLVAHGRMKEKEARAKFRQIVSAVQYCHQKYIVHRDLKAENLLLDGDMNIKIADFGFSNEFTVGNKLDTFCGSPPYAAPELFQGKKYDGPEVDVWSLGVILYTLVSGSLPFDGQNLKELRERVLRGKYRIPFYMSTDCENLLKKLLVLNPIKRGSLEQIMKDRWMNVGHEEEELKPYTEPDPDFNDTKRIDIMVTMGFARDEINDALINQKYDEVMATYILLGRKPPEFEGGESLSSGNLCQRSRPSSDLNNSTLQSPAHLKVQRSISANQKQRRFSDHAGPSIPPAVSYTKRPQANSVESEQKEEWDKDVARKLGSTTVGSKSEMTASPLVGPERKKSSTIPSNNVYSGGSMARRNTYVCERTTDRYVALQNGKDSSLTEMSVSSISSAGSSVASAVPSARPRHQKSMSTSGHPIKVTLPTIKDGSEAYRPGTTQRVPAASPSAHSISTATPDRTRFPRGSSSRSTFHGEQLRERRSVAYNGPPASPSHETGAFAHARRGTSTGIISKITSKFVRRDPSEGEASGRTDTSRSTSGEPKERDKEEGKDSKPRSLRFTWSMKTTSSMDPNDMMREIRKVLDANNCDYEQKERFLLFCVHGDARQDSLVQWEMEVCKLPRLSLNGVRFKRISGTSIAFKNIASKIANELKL
Sequence of STE20-like serine/threonine-protein kinase (Q9H2G2 whole entry, looked up): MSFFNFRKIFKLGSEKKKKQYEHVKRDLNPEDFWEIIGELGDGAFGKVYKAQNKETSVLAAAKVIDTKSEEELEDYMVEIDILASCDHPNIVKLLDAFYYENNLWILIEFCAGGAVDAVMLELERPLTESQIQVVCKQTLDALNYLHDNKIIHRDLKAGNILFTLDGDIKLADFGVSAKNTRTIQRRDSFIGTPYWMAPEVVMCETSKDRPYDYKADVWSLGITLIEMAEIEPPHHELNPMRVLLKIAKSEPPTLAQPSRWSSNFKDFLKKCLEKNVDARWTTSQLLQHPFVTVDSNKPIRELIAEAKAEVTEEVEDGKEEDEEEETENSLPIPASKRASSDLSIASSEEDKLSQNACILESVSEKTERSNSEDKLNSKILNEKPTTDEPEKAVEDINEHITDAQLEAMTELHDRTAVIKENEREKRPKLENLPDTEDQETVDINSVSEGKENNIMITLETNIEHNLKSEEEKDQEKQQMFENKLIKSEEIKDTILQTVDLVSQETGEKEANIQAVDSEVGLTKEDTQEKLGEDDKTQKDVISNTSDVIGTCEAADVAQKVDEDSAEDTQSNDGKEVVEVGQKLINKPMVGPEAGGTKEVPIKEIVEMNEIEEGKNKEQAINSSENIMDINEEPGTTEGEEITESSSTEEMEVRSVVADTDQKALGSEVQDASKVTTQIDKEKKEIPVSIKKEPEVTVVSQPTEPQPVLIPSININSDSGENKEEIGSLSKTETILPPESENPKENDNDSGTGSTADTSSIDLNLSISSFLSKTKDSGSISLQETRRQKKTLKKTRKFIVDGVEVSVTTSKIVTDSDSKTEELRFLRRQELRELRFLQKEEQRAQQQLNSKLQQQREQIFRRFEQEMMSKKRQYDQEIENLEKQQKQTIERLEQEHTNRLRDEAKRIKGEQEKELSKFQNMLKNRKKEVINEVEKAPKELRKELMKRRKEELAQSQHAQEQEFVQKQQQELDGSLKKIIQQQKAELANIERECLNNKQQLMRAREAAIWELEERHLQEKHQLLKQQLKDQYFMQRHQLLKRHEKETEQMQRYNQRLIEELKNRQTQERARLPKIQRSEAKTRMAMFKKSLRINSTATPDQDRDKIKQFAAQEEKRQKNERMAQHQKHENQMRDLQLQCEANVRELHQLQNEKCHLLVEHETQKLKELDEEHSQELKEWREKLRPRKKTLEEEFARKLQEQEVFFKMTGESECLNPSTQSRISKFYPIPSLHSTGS
Sequence of Serine/threonine-protein kinase 38-like (Homo sapiens) (Q9Y2H1 2-464 limits assumed): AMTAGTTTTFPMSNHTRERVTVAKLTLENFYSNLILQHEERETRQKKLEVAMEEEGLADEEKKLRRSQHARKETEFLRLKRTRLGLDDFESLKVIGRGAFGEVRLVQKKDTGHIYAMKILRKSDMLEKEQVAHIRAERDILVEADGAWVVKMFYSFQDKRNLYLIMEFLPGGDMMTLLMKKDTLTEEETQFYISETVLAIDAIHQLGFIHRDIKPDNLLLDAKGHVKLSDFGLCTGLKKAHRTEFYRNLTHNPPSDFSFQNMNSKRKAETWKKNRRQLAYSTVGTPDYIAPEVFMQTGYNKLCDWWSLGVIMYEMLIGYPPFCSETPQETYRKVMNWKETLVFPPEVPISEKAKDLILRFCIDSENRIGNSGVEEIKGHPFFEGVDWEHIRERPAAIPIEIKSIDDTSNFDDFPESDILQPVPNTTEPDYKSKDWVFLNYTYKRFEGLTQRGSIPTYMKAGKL
Sequence of Receptor-interacting serine/threonine-protein kinase 2 (O43353 whole entry): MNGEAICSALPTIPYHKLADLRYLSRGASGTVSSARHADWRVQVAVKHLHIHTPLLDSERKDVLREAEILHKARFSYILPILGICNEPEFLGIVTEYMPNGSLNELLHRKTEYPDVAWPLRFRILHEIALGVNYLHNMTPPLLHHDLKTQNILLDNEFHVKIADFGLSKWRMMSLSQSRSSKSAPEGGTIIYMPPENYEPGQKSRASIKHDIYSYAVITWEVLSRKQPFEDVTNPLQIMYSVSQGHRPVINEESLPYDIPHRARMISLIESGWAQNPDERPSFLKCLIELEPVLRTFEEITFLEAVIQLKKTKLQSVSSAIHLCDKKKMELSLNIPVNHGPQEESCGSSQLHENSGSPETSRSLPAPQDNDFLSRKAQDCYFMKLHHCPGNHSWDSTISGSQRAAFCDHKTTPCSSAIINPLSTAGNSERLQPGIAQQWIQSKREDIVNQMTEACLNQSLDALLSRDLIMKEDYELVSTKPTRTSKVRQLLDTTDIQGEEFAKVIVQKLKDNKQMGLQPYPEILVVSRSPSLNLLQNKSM
Sequence of Insulin-like growth factor 1 receptor (P08069 31-736 limits assumed): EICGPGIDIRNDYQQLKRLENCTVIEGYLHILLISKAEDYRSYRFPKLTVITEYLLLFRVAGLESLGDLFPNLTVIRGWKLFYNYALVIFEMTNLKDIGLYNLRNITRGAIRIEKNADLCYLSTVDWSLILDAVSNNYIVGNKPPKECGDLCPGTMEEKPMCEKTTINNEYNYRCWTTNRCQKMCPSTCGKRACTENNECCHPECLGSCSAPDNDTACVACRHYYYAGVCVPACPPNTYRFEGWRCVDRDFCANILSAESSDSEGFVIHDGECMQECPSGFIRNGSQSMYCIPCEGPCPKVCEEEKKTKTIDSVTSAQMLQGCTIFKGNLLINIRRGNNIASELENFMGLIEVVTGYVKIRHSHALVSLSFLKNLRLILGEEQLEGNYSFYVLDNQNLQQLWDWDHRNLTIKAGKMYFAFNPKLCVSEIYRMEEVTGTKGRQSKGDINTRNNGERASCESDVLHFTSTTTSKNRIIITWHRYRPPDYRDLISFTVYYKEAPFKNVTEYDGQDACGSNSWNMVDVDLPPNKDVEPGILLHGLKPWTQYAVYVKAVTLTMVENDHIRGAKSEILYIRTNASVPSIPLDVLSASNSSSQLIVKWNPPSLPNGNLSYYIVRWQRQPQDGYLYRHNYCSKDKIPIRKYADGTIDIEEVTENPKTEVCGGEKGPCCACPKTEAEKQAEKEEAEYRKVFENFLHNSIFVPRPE
Sequence of Insulin-like growth factor 1 receptor (P08069 741-1367 limits assumed): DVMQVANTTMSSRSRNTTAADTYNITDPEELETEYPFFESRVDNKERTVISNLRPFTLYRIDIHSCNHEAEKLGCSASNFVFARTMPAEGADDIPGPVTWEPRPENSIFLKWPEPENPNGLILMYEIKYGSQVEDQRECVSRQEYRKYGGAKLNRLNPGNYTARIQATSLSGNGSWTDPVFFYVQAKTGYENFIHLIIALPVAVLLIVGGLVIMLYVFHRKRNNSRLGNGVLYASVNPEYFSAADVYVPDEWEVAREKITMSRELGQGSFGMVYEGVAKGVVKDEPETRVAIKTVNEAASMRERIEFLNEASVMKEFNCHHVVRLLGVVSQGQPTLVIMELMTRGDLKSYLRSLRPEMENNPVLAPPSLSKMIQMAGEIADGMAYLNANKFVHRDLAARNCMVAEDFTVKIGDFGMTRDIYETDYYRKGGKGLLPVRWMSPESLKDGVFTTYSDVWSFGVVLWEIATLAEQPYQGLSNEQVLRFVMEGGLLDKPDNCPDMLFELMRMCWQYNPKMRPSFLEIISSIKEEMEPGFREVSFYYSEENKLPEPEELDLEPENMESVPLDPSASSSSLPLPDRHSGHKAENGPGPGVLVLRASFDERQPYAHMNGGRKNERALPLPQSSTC
Sequence of Serine/threonine-protein kinase 32B (Homo sapiens) (Q9NY57 whole entry): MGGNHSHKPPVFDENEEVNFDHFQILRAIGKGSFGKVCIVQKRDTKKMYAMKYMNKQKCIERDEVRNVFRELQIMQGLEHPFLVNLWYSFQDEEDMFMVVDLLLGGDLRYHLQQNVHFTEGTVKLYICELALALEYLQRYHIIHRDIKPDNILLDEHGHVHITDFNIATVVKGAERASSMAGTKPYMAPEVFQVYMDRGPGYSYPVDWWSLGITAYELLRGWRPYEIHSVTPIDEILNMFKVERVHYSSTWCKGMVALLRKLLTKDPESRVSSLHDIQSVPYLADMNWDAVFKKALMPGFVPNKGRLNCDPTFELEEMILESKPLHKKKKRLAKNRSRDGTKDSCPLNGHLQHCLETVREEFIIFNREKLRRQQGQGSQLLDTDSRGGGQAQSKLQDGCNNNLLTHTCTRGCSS

% of control [1]: 100%
SMILES: CCN(CC)CCCCNc1ncc2cc(-c3cc(OC)cc(OC)c3)c(NC(=O)NC(C)(C)C)nc2n1

SMILES: CN(C)C/C=C/C(=O)Nc1ccc(C(=O)N2CCCC(Nc3ncc(Cl)c(-c4c[nH]c5ccccc45)n3)C2)cc1 (stereo not given)
% of control [2]: 79%

SMILES: CN(C)CCOc1ccc(-c2nc(-c3ccncc3)c(-c3ccc4c(c3)CC/C4=N\O)[nH]2)cc1
% of control [3]: 14%

SMILES: O[C@H]1CC[C@H](Nc2ncc3nc(Nc4c(F)cc(F)cc4F)n([C@H]4CCOC4)c3n2)CC1
% of control [4]: 100%
% of control [5]: 100%
% of control [6]: 90%

SMILES: CNC(=O)Nc1ccc(-c2nc(N3CC4CCC(C3)O4)c3cnn(C4CCC5(CC4)OCCO5)c3n2)cc1
% of control [7]: 100%

SMILES: N#Cc1cccc(-c2c[nH]c3ncnc(N4CCOCC4)c23)c1
% of control [8]: 53%
% of control [9]: 25%

SMILES: COCC(=O)NC/C=C/c1ccc2ncnc(Nc3ccc(Oc4ccc(C)nc4)c(C)c3)c2c1 [CP-724714]
% of control [10]: 91%

dTagg [11]: -0.1 K
SMILES: Cc1cc(CN)cc(C)c1-c1ncn(C)c1-c1cncn1C

IC50 [12]: > 10 µM
SMILES: CCC(=O)N1CC[C@H](Nc2ncnc3c2CN(c2cnc(OC)c(C(F)(F)F)c2)CC3)C1 [LENIOLISIB]

SMILES: CCC(=O)N1CCN(c2ccc(-n3c(=O)ccc4cnc5ccc(-c6cnc7ccccc7c6)cc5c43)cc2C(F)(F)F)CC1
% of control [13]: 100%
% of control [14]: 100%

% of control [15]: -7.51%
SMILES: Cn1cc(-n2cnc3c(NCc4nc5cc(Cl)c(Cl)cc5[nH]4)nc(N4CCOCC4)nc32)cn1
